Measured values: the CheMixHub ionic liquid set

Experiment: xn = mol fraction of the nth substance listed
Settings: 100 kPa

CCCCO + CCCC[n+]1ccn(C)c1.O=S(=O)([N-]S(=O)(=O)C(F)(F)F)C(F)(F)F
Settings	viscosity [mPa·s]
298 K, x2 = 0	2.578

CCCC[n+]1ccn(C)c1.COP(=O)([O-])OC + CCCC[n+]1ccn(C)c1.O=S(=O)([N-]S(=O)(=O)C(F)(F)F)C(F)(F)F
Settings	viscosity [mPa·s]
288.15 K, x2 = 0	1455

O=C1CCCO1 + CCCC[n+]1ccn(C)c1.O=S(=O)([N-]S(=O)(=O)C(F)(F)F)C(F)(F)F
Settings	electrical conductivity [S/m]	viscosity [mPa·s]
293.15 K, x1 = 0.2992	0.457	29.86
293.15 K, x1 = 0.8496	1.39	–
293.15 K, x2 = 0.0151	0.411	–
298.15 K, x1 = 0.5021	0.744	14.84
303.15 K, x1 = 0.2992	0.642	20.99
308.15 K, x1 = 0.5979	1.27	8.18
308.15 K, x1 = 0.7999	1.81	4.12
308.15 K, x1 = 0.8496	1.85	–
308.15 K, x1 = 1	0.001	1.52
313.15 K, x1 = 0.1984	0.753	18.48
313.15 K, x1 = 0.5979	1.45	7.26
313.15 K, x1 = 0.95	1.42	–
313.15 K, x1 = 1	0.001	1.42
313.15 K, x2 = 0.0151	0.542	–
318.15 K, x1 = 0.7999	2.15	3.44
318.15 K, x1 = 0.8496	2.17	–
318.15 K, x1 = 0.8995	2.02	2.35
318.15 K, x1 = 1	0.001	1.35
323.15 K, x1 = 0.7999	2.37	3.11
323.15 K, x1 = 1	0.002	1.3

CCCCO + CCCC[n+]1ccn(C)c1.O=S(=O)([O-])C(F)(F)F
x2 = 0
Settings	viscosity [mPa·s]
298.15 K	2.61
303.15 K	2.31
308.15 K	2.07
313.15 K	1.85
318.15 K	1.66
323.15 K	1.5
